# Target: human ACC2 (Homo sapiens (Human), UniProt O00763)
# Assay: ACC2 assay, spectrophotometric 384 well assay (NADH-linked, coupled lactate dehydrogenase/pyruvate kinase reaction)
# Type: biochemical
# Conditions: hACC2 construct lacking the 128 N-terminal amino acids; 25° C., 340 nm over 15 minutes
# Protocol: Spectrophotometric 384 Well Assay
# Malonyl CoA formation by acetyl CoA carboxylases is stoichometrically linked to the consumption of ATP. ACC2 activity is measured in a NADH-linked kinetic method measuring ADP generated during the ACC reaction using a coupled lactate dehydrogenase/pyruvate kinase reaction.
# For biological testing, a human ACC2 construct which lacks the 128 amino acids at the N-terminus for increased solubility (nt 385-6966 in Genbank entry AJ575592) is cloned. The protein is then expressed in insect cells using a baculoviral expression system. Protein purification is performed by anion exchange.
# All compounds are dissolved in dimethyl sulfoxide (DMSO) to a concentration of 10 mM.
# Assay reactions are then carried out in 384-well plates, with hACC2 in an appropriate dilution and at final assay concentrations (f.c.) of 100 mM Tris (pH 7.5), 10 mM trisodium citrate, 25 mM KHCO3, 10 mM MgCl2, 0.5 mg/mL BSA, 3.75 mM reduced L-glutathione, 15 U/mL lactate dehydrogenase, 0.5 mM phosphoenolpyruvate, 15 U/mL pyruvate kinase, compounds at different concentrations at final DMSO concentrations of 1%.
# The enzymatic reaction is then started by addition of a mixture of NADH, acetyl Coenzyme A (both 200 μM f.c.) and ATP (500 uM f.c.). The decrease of the optical density (slope S) is then determined at 25° C. at a wavelength of 340 nm over 15 minutes in a spectrophotometric reader.
# Each assay microtiter plate contains wells with vehicle instead of compound as controls for the non-inhibited enzyme (100% CTL; ‘HIGH’) and wells without acetyl-CoA as controls for non-specific NADH degradation (0% CTL; ‘LOW’).
# The slope S is used for calculation of % CTL=(S(compound)−S(‘LOW’))/(S(‘HIGH’)−S(‘LOW’))*100. Compounds will give values between 100% CTL (no inhibition) and 0% CTL (complete inhibition).
# For IC50 value determination, the sample slope in the presence of the test compound after subtraction of the low controls (S(compound)−S(‘LOW’)) are used. An IC50 value is derived from the compound slopes at different dosages after subtraction of the low controls (S(compound)−S(‘LOW’)) by non-linear regression curve fitting (equation y=(A+((B−A)/(1+((C/x)^D))))).
# Sequence of human ACC2 (O00763 129-2458): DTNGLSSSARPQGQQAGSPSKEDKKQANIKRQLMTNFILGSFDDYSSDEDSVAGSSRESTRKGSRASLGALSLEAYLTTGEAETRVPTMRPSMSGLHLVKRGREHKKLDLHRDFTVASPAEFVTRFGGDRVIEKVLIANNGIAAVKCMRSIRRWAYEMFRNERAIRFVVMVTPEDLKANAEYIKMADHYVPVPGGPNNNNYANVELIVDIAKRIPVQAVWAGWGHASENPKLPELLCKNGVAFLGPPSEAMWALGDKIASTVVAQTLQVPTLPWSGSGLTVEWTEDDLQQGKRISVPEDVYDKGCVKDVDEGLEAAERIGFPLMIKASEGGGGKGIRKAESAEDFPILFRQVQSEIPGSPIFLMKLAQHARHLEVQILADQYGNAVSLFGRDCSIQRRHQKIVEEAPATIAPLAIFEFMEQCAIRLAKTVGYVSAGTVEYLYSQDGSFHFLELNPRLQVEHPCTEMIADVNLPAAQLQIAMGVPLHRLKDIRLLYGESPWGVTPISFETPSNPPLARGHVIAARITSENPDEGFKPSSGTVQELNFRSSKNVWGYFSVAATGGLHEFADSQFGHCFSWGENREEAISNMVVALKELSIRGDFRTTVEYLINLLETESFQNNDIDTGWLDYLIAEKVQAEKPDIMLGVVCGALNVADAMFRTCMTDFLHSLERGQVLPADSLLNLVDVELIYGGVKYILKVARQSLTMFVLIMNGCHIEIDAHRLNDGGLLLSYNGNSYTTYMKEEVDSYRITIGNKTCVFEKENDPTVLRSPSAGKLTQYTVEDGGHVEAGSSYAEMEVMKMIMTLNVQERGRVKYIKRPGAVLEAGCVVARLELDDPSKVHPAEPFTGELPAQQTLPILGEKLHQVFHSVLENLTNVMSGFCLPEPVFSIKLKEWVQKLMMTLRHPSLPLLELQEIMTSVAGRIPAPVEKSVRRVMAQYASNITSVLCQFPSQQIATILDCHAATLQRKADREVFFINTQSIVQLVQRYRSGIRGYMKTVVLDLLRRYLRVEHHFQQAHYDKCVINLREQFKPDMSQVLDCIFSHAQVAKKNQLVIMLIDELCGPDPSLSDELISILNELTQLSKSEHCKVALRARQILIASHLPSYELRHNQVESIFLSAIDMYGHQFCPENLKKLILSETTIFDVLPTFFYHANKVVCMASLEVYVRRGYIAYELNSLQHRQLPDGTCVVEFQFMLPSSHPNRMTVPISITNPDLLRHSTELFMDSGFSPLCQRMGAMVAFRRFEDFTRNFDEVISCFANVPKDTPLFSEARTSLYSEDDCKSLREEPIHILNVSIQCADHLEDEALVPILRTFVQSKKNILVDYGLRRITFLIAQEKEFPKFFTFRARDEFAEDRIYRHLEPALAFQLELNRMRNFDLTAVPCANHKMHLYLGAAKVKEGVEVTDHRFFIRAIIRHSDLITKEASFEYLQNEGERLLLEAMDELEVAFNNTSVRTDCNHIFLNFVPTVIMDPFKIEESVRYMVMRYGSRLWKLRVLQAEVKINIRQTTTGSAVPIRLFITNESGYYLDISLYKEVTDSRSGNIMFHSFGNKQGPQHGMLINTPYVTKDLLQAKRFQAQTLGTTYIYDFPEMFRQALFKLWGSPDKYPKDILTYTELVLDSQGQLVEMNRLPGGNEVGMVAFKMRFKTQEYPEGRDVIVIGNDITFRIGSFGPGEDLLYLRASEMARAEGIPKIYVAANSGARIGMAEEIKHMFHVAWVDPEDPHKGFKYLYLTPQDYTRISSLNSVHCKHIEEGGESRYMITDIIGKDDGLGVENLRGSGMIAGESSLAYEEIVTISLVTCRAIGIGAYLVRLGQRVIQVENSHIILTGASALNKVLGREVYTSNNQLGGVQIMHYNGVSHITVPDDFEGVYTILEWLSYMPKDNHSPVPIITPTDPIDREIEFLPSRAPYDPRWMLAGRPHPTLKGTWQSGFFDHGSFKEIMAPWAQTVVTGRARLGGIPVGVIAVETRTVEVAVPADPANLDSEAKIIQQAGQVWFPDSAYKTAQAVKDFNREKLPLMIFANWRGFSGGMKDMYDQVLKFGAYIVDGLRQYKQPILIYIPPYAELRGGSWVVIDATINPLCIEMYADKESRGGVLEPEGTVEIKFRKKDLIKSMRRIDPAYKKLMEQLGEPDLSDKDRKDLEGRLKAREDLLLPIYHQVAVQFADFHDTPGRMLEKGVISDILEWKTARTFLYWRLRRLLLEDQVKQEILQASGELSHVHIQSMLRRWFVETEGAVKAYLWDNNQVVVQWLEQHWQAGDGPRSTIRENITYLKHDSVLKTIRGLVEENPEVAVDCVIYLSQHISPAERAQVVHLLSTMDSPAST
row,SMILES,IC50 [µM]
1,CC(=O)NC(C)Cc1ccc(C#Cc2ccc(Oc3cncnc3)nc2)cc1 (stereo not shown) [Example 2.26],0.93
2,CCCOc1ccc(C#Cc2ccc(CC(C)NC(C)=O)cc2)cn1 (stereo not shown) [Example 2.27],0.28
3,CCOc1cc(C#Cc2ccc(CC(C)NC(C)=O)cc2)ccn1 (stereo not shown) [Example 2.28],0.27
4,CCOc1ccc(C#Cc2ccc(CC(C)NC(C)=O)cc2)nn1 (stereo not shown) [Example 2.29],1.6
5,COc1ccc(C#Cc2ccc(CC(C)NC(C)=O)cc2)cc1 (stereo not shown) [Example 2.30],0.33
6,CCOc1ccc(C#Cc2ccc(CC(C)NC(C)=O)cc2)cn1 (stereo not shown) [Example 2.31],0.28
7,CCCOc1ccc(C#Cc2ccc(CC(C)NC(C)=O)cc2)c(OC)c1 (stereo not shown) [Example 2.32],0.16
8,CC(=O)NCC(C)(C)c1ccc(C#Cc2cnc(NC3CCC3)nc2)cc1 [Example 2.33],0.27
9,CC(=O)NCC(C)(C)c1ccc(C#Cc2cnc(OC3CCC3)nc2)cc1 [Example 2.34],0.18
10,CCCOc1ccc(C#Cc2ccc(C(C)(C)CNC(C)=O)cc2)cn1 [Example 2.35],0.13
11,CCCOc1ccc(C#Cc2ccc(C(C)(C)CNC(C)=O)cc2)cc1 [Example 2.36],0.14
12,CC(=O)NCC(C)(C)c1ccc(C#Cc2ccc(OCC3CC3)cc2)cc1 [Example 2.37],0.1
13,CC(=O)NC(C)(C)c1ccc(C#Cc2ccnc(OC(C)C)c2)cc1 [Example 2.38],10.1
14,CC(=O)NC(C)(C)c1ccc(C#Cc2ccc(OC(C)C)nc2)cc1 [Example 2.39],21.6
15,CCCOc1ccc(C#Cc2ccc(C(C)(C)NC(C)=O)cc2)c(OC)c1 [Example 2.40],11.8
16,CCCOc1ccc(C#Cc2ccc(C(C)(C)NC(C)=O)cc2)cc1 [Example 2.41],25
17,CC(=O)NC(C)(C)c1ccc(C#Cc2ccc(OC3CCC3)cc2)cc1 [Example 2.42],24.6
18,CC(=O)NC(C)c1ccc(C#Cc2ccc(OC3CCCC3)nc2)cc1 (stereo not shown) [Example 2.43],0.45
19,CC(=O)NC(C)c1ccc(C#Cc2ccc(OC(C)(C)C)cc2)cc1 (stereo not shown) [Example 2.44],0.42
20,CC(=O)NC(C)c1ccc(C#Cc2ccc3c(c2)CCO3)cc1 (stereo not shown) [Example 2.45],0.25
21,CCCc1ccc(C#Cc2ccc(C(C)NC(C)=O)cc2)cc1 (stereo not shown) [Example 2.46],0.41
22,CC(=O)NC(C)c1ccc(C#Cc2ccc(OC(C)C)cc2)cc1 (stereo not shown) [Example 2.47],0.36
23,CC(=O)NC(C)c1ccc(C#Cc2ccc(OCC(C)C)cc2)cc1 (stereo not shown) [Example 2.48],0.26
24,CCCOc1ccc(C#Cc2ccc(C(C)NC(C)=O)cc2)cc1 (stereo not shown) [Example 2.49],0.25

row,SMILES,IC50 [µM]
1,CC(=O)NC(C)c1ccc(C#Cc2ccc(OC(C)C)nc2)cc1 (stereo not shown) [Example 2.50],0.9
2,CCCOc1ccc(C#Cc2ccc(C(C)NC(C)=O)cc2)c(OC)c1 (stereo not shown) [Example 2.51],1.3
3,CC(=O)NC(C)c1ccc(C#Cc2ccc(OC3CCCC3)cc2)cc1 (stereo not shown) [Example 2.52],0.19
4,CC(=O)NC(C)c1ccc(C#Cc2ccc(OC3CCC3)cc2)cc1 (stereo not shown) [Example 2.53],0.12
5,CCCOc1ccc(C#Cc2ccc(C(C)NC(C)=O)cc2)cn1 (stereo not shown) [Example 2.54],1.2
6,CC(=O)NC(C)c1ccc(C#Cc2ccc(OC3CC3)cc2)cc1 (stereo not shown) [Example 2.55],0.07
7,COc1ccc(C#Cc2ccc(CC(C)NC(=O)C3CC3)cc2)cc1 (stereo not shown) [Example 2.56],0.96
8,CC(Cc1ccc(C#Cc2ccc(C(C)C)cc2)cc1)NC(=O)C1CC1 (stereo not shown) [Example 2.57],0.57
9,COc1ncc(C#Cc2ccc(CC(C)NC(=O)C3CC3)cc2)c(OC)n1 (stereo not shown) [Example 2.58],3.7
10,CC(Cc1ccc(C#Cc2ccc(OC(F)F)cc2)cc1)NC(=O)C1CC1 (stereo not shown) [Example 2.59],2.1
11,CCOc1cc(C#Cc2ccc(CC(C)NC(=O)C3CC3)cc2)ccn1 (stereo not shown) [Example 2.60],0.69
12,CC(Cc1ccc(C#Cc2ccc(OC(C)(C)C)cc2)cc1)NC(=O)C1CC1 (stereo not shown) [Example 2.61],2
13,CC(Cc1ccc(C#Cc2ccc3c(c2)CCO3)cc1)NC(=O)C1CC1 (stereo not shown) [Example 2.62],0.74
14,CCCc1ccc(C#Cc2ccc(CC(C)NC(=O)C3CC3)cc2)cc1 (stereo not shown) [Example 2.63],0.46
15,COc1ccc(C#Cc2ccc(CC(C)NC(=O)C3CC3)cc2)cn1 (stereo not shown) [Example 2.64],2.8
16,CC(Cc1ccc(C#Cc2ccc(OC(C)C)nc2)cc1)NC(=O)C1CC1 (stereo not shown) [Example 2.65],0.48
17,CC(Cc1ccc(C#Cc2ccc(OC3CCCC3)nc2)cc1)NC(=O)C1CC1 (stereo not shown) [Example 2.66],0.23
18,CC(Cc1ccc(C#Cc2ccc(C3CC3)cn2)cc1)NC(=O)C1CC1 (stereo not shown) [Example 2.67],7.2
19,CCCOc1ccc(C#Cc2ccc(CC(C)NC(=O)C3CC3)cc2)c(OC)c1 (stereo not shown) [Example 2.68],0.25
20,COc1cc(C#Cc2ccc(CC(C)NC(=O)C3CC3)cc2)ccn1 (stereo not shown) [Example 2.69],2
21,CCCOc1ccc(C#Cc2ccc(CC(C)NC(=O)C3CC3)cc2)cn1 (stereo not shown) [Example 2.70],0.8
22,COc1ccc(C#Cc2ccc(CC(C)NC(=O)C3CC3)cc2)cc1OC (stereo not shown) [Example 2.71],3.4
23,CC(=O)NC(C)Cc1ccc(C#Cc2cnc3ccccc3c2)cc1 (stereo not shown) [Example 2.72],0.91
24,CC(=O)NC(C)Cc1ccc(C#Cc2ccc(N3CCOCC3)cc2)cc1 (stereo not shown) [Example 2.73],0.64

row,SMILES,IC50 [µM]
1,CC(=O)NC(C)Cc1ccc(C#Cc2ccc3ncccc3c2)cc1 (stereo not shown) [Example 2.74],1.1
2,CC(=O)NC(C)Cc1ccc(C#Cc2ccc(OC(C)(C)C)cc2)cc1 (stereo not shown) [Example 2.75],0.1
3,CC(=O)NC(C)Cc1ccc(C#Cc2ccc3c(c2)CCC3=O)cc1 (stereo not shown) [Example 2.76],5.8
4,CC(=O)NC(C)Cc1ccc(C#Cc2ccc(Oc3ccccc3)nn2)cc1 (stereo not shown) [Example 2.77],1.5
5,CC(=O)NC(C)Cc1ccc(C#Cc2cc(OCc3ccccc3)ncn2)cc1 (stereo not shown) [Example 2.78],0.75
6,CC(=O)NC(C)Cc1ccc(C#Cc2cnn(-c3ccccc3)c2)cc1 (stereo not shown) [Example 2.79],0.45
7,CC(=O)NC(C)Cc1ccc(C#Cc2ccc(C3CC3)cn2)cc1 (stereo not shown) [Example 2.80],0.74
8,CC(=O)NC(C)Cc1ccc(C#Cc2cc(C)c3c(c2)oc(=O)n3C)cc1 (stereo not shown) [Example 2.81],4
9,CC(=O)NC(C)Cc1ccc(C#Cc2ccn(CC(C)C)c(=O)c2)cc1 (stereo not shown) [Example 2.82],1.6
10,COCCn1ccc(C#Cc2ccc(CC(C)NC(C)=O)cc2)cc1=O (stereo not shown) [Example 2.83],17.7
11,CC(=O)NC(C)Cc1ccc(C#Cc2ccn(C(C)C)c(=O)c2)cc1 (stereo not shown) [Example 2.84],5.8
12,CCCCn1ccc(C#Cc2ccc(CC(C)NC(C)=O)cc2)cc1=O (stereo not shown) [Example 2.85],1.1
13,CC(=O)NC(C)Cc1ccc(C#Cc2ccc(OC(C)C)nn2)cc1 (stereo not shown) [Example 2.86],0.93
14,CCn1ccc(C#Cc2ccc(CC(C)NC(C)=O)cc2)cc1=O (stereo not shown) [Example 2.87],12.9
15,CCCCOc1ccc(C#Cc2ccc(CC(C)NC(C)=O)cc2)nn1 (stereo not shown) [Example 2.88],0.88
16,COCCOc1ccc(C#Cc2ccc(CC(C)NC(C)=O)cc2)nn1 (stereo not shown) [Example 2.89],16.4
17,CCCOc1ccc(C#Cc2ccc(CC(C)NC(C)=O)cc2)c(C(N)=O)c1 (stereo not shown) [Example 2.90],5.2
18,CC(=O)NC(C)Cc1ccc(C#Cc2ccnc(Oc3cncnc3)c2)cc1 (stereo not shown) [Example 2.91],0.4
19,CCCOc1ccc(C#Cc2ccc(CC(C)NC(C)=O)cc2)c(C#N)c1 (stereo not shown) [Example 2.92],0.17
20,CCCOc1ccc(C#Cc2ccc(CC(C)NC(C)=O)cc2)c(Cl)c1 (stereo not shown) [Example 2.93],0.08
21,COc1cc(C#Cc2ccc(CC(C)NC(C)=O)cc2)ccn1 (stereo not shown) [Example 2.94],0.26
22,CCCOc1ccc(C#Cc2ccc(CC(C)NC(C)=O)cc2)c(C)c1 (stereo not shown) [Example 2.95],0.11

# From patent US8835472B2, “Compounds, pharmaceutical compositions and uses thereof” (Boehringer Ingelheim International GmbH, priority 2010, dated 2014)
